Measurements reported in patent US9695240B2, “Anthracycline derivative conjugates, process for their preparation and their use as antitumor compounds” (Genentech, Inc., priority 2008, dated 2017).
“Also recorded” adds a separate entry of the source.

Columns and labels:
[1] = tested on: BT-474 cells; experiment: CellTiter-Glo in vitro cell proliferation assay, BT-474; format: cell-based
From the text: (§1) Cell-based in vitro assays may be used to measure viability, i.e. proliferation (IC50), cytotoxicity (EC50), and induction of apoptosis (caspase activation) of the ADC. The CellTiter-Glo® Luminescent Cell Viability Assay is a commercially available (Promega Corp., Madison, Wis.), homogeneous assay method based on the recombinant expression of Coleoptera luciferase (U.S. Pat. Nos. 5,583,024; 5,674,713; 5,700,670). This cell proliferation assay determines the number of viable cells in culture based on quantitation of the ATP present, an indicator of metabolically active cells (Crouch et al (1993) J. Immunol. Meth. 160:81-88; U.S. Pat. No. 6,602,677). The CellTiter-Glo® Assay is conducted in 96 well format, making it amenable to automated high-throughput screening (HTS) (Cree et al (1995) AntiCancer Drugs 6:398-404). The homogeneous assay procedure involves adding the single reagent (CellTiter-Glo® Reagent) directly to cells cultured in serum-supplemented medium. Cell washing, removal of medium and multiple pipetting steps are not required. The system detects as few as 15 cells/well in a 384-well format in 10 minutes after adding reagent and mixing.
(§2) The in vitro potency of antibody-drug conjugates was measured by a cell proliferation assay (FIGS. 8-29). The CellTiter-Glo® Luminescent Cell Viability Assay is a commercially available (Promega Corp., Madison, Wis.), homogeneous assay method based on the recombinant expression of Coleoptera luciferase (U.S. Pat. Nos. 5,583,024; 5674,713; 5,700,670). This assay determines the number of viable cells in culture based on quantitation of the ATP present, an indicator of metabolically active cells (Crouch et al (1993) J. Immunol. Meth. 160:81-88; U.S. Pat. No. 6,602,677). The CellTiter-Glo® Assay was conducted in 96 well format, making it amenable to automated high-throughput screening (HTS) (Cree et al (1995) AntiCancer Drugs 6:398-404). The homogeneous assay procedure involves adding the single reagent (CellTiter-Glo® Reagent) directly to cells cultured in serum-supplemented medium.
(§3) The homogeneous “add-mix-measure” format results in cell lysis and generation of a luminescent signal proportional to the amount of ATP present. The substrate, Beetle Luciferin, is oxidatively decarboxylated by recombinant firefly luciferase with concomitant conversion of ATP to AMP and generation of photons. Viable cells are reflected in relative luminescence units (RLU). Data can be recorded by luminometer or CCD camera imaging device. The luminescence output is presented as RLU, measured over time. Alternatively, photons from luminescence can be counted in a scintillation counter in the presence of a scintillant. The light units can be represented then as CPS—counts per second.
(§4) Efficacy of ADC were measured by a cell viability assay employing the following protocol, adapted from CellTiter Glo Luminescent Cell Viability Assay, Promega Corp. Technical Bulletin TB288 and Mendoza et al (2002) Cancer Res. 62:5485-5488: • 1. An aliquot of 50 μl of cell culture containing about 1000 or more cells, including: HER2-expressing and CD22-expressing cells, in medium was deposited in each well of a 96-well, opaque-walled, clear bottom plate. • 2. ADC (50 μl) was added to triplicate experimental wells to final concentration of 10 μg/mL, with “no ADC” control wells receiving medium alone, and incubated for 3 or more days. • 3. The plates were equilibrated to room temperature for approximately 30 minutes. • 4. CellTiter-Glo Reagent (100 μl) was added. • 5. The contents were mixed for 2 minutes on an orbital shaker to induce cell lysis. • 6. The plate was incubated at room temperature for 10 minutes to stabilize the luminescence signal. • 7. Luminescence was recorded and reported in graphs as RLU=relative luminescence units.

[2] = tested on: MCF7 cells; experiment: CellTiter-Glo in vitro cell proliferation assay, MCF7; format: cell-based, human
From the text: as §1, §2, §3, §4

[3] = tested on: tumor models; conditions: cited from earlier work
[4] = tested on: doxorubicin-resistant (DoxRes) HER2 cells; experiment: CellTiter-Glo in vitro cell proliferation assay, doxorubicin-resistant HER2; format: cell-based
From the text: as §1, §2, §3, §4

[5] = tested on: SK-BR-3 cells; experiment: CellTiter-Glo in vitro cell proliferation assay, SK-BR-3; format: cell-based
From the text: as §1, §2, §3, §4

[6] = tested on: Burkitt's lymphoma Bjab-luc xenograft tumors; experiment: in vivo Bjab-luc xenograft tumor efficacy study; design: species or system CB17 SCID mice
Experimental: The therapeutic effect of the antibody-drug conjugate (ADC) compounds and the improvement of their therapeutic efficacy in comparison with the parent drug, were assessed in animal models of human transplanted tumors. Mice bearing xenografts of human tumors were treated with suitable doses of antibody-drug conjugates, of PNU-159682 free drug, and naked antibody, at certain doses, and the tumor growth was recorded and compared in the different treatment groups. FIGS. 30-32 show the efficacy of the antibody-drug conjugates of Formula Ic by xenograft tumor inhibition in mice.
The efficacy of the antibody-drug conjugates of the invention may be measured in vivo by implanting allografts or xenografts of cancer cells or primary tumors in rodents and treating the tumors with ADC according to the procedures of Example 12. Variable results are to be expected depending on the cell line, the specificity of antibody binding of the ADC to receptors present on the cancer cells, dosing regimen, and other factors. For example, the in vivo efficacy of anti-HER2 ADC may be measured by a high expressing HER2 transgenic explant mouse model. […] Subjects are treated once with ADC and monitored over 3-6 weeks to measure the time to tumor doubling, log cell kill, and tumor shrinkage. Follow up dose-response and multi-dose experiments may be further conducted.
The Bjab-luc (EBV-negative Burkitt's lymphoma, luciferase expressing Bjab cells) tumors express CD22 receptor protein (Polson et al (2009) Cancer Res. 69(6):2358-2364; US 2008/0050310; US 2005/0276812). CD22 is expressed only in the B-cell compartment and on the surface of most NHL cells (D'Arena et al (2000) Am J Hematol. 64:275-81; Olejniczak et al (2006) Immunol Invest. 35:93-114). Efficacy in inhibiting the Bjab-luc xenograft tumor in mice as a model system may predict the clinical response in treating patients with hematopoietic malignancies such as non-Hodgkins lymphoma.
Efficacy studies were performed using SCID mice (Charles River Laboratories). […] When tumor volumes reached 150-200 mm^3 (typically Day 14 to Day 21 after inoculation), the mice were segregated into sample groups of 9-10 mice per group and the tumor volume was determined in each mouse. […] ADC doses were either measured as the mass of the conjugated cytotoxic small molecule drug per surface area of the mouse, or as a constant mass of ADC per mass of the mouse (e.g., 5 mg of ADC/kg mouse). […] Tumor volume was measured using calipers according to the formula: V (mm^3)=0.5A×B^2, where A and B are the long and short diameters, respectively. […] Data collected from each experimental group were expressed as mean±SE.

[7] = 8.77 ug/kg single iv dose day 0, 48 day study

COc1cccc2c1C(=O)c1c(O)c3c(c(O)c1C2=O)C[C@@](O)(C(=O)CO)C[C@@H]3O[C@H]1C[C@H]2[C@H](O[C@@H]3[C@@H](OC)OCCN32)[C@H](C)O1 [PNU-159682, 3′-deamino-3″,4′-anhydro-[2″(S)-methoxy-3″(R)-oxy-4″-morpholinyl]doxorubicin, reference compound]
BT-474 in vitro cell viability at 3 days, in words ([1]; brief (1 hr) exposure): effectively inhibited growth
BT-474 in vitro cell viability at 3 days, anti-proliferative activity in words ([1]; continuous exposure, 3 days): most potently inhibited; also recorded: caused cytotoxicity at all doses tested
MCF7 in vitro cell viability at 3 days, in words ([2]; brief (1 hr) exposure): effectively inhibited growth
MCF7 in vitro cell viability at 3 days, anti-proliferative activity in words ([2]; continuous exposure, 3 days): most potently inhibited; also recorded: caused cytotoxicity at all concentrations tested
antitumor activity in in vivo tumor models, in words [3]: effective in vivo tumor models
DoxRes HER2 in vitro cell viability at 3 days, in words ([4]; brief (1 hr) exposure): effectively inhibited growth
DoxRes HER2 in vitro cell viability at 3 days, anti-proliferative activity in words ([4]; continuous exposure, 3 days): most potently inhibited; also recorded: inhibited growth at all concentrations tested
SK-BR-3 in vitro cell viability at 3 days, in words ([5]; brief (1 hr) exposure): effectively inhibited growth
SK-BR-3 in vitro cell viability at 3 days, anti-proliferative activity in words ([5]; continuous exposure, 3 days): most potently inhibited; also recorded: caused cytotoxicity at all doses tested
CR-complete tumor regression [6, 7]: 0
PR-partial tumor regression [6, 7]: 0
TI-tumor incidence [6, 7]: 9/9
tumor growth inhibition in Bjab-luc xenograft, in words ([6]; single dosing on day 0, doses of FIG. 30): no effect on tumor growth
